What was measured:
[1] = Binding affinity to 5'-GGCCCCGG-3' DNA hairpin assessed as change in fluorescence intensity at 1 uM after 45 mins by fluorescence quenching analysis relative to control
[2] = Binding affinity to 5'-GCCGGCGG-3' DNA hairpin assessed as change in fluorescence intensity at 1 uM after 45 mins by fluorescence quenching analysis relative to control
[3] = Binding affinity to 5'-GGCCCGGG-3' DNA hairpin assessed as change in fluorescence intensity at 1 uM after 45 mins by fluorescence quenching analysis relative to control
[4] = Binding affinity to 5'-CGCCGGGG-3' DNA hairpin assessed as change in fluorescence intensity at 1 uM after 45 mins by fluorescence quenching analysis relative to control
[5] = Binding affinity to 5'-CGCCGCGG-3' DNA hairpin assessed as change in fluorescence intensity at 1 uM after 45 mins by fluorescence quenching analysis relative to control
[6] = Binding affinity to 5'-CCCGGCGC-3' DNA hairpin assessed as change in fluorescence intensity at 1 uM after 45 mins by fluorescence quenching analysis relative to control
[7] = Binding affinity to 5'-GGCCCCCG-3' DNA hairpin assessed as change in fluorescence intensity at 1 uM after 45 mins by fluorescence quenching analysis relative to control
[8] = Binding affinity to 5'-GGCCGGGC-3' DNA hairpin assessed as change in fluorescence intensity at 1 uM after 45 mins by fluorescence quenching analysis relative to control
[9] = Binding affinity to 5'-GCGCCCGG-3' DNA hairpin assessed as change in fluorescence intensity at 1 uM after 45 mins by fluorescence quenching analysis relative to control
[10] = Binding affinity to 5'-GGGGCGGC-3' DNA hairpin assessed as change in fluorescence intensity at 1 uM after 45 mins by fluorescence quenching analysis relative to control
[11] = Binding affinity to 5'-GGGGGCGG-3' DNA hairpin assessed as change in fluorescence intensity at 1 uM after 45 mins by fluorescence quenching analysis relative to control
[12] = Binding affinity to 5'-GCGCCGGC-3' DNA hairpin assessed as change in fluorescence intensity at 1 uM after 45 mins by fluorescence quenching analysis relative to control
[13] = Binding affinity to 5'-GCCCGCCG-3' DNA hairpin assessed as change in fluorescence intensity at 1 uM after 45 mins by fluorescence quenching analysis relative to control
[14] = Binding affinity to 5'-GGCGGGGC-3' DNA hairpin assessed as change in fluorescence intensity at 1 uM after 45 mins by fluorescence quenching analysis relative to control
[15] = Binding affinity to 5'-GGCCCCGC-3' DNA hairpin assessed as change in fluorescence intensity at 1 uM after 45 mins by fluorescence quenching analysis relative to control
[16] = Binding affinity to 5'-CGCGGGCC-3' DNA hairpin assessed as change in fluorescence intensity at 1 uM after 45 mins by fluorescence quenching analysis relative to control
[17] = Binding affinity to 5'-CGCGGGGC-3' DNA hairpin assessed as change in fluorescence intensity at 1 uM after 45 mins by fluorescence quenching analysis relative to control
[18] = Binding affinity to 5'-GCCCCGCG-3' DNA hairpin assessed as change in fluorescence intensity at 1 uM after 45 mins by fluorescence quenching analysis relative to control
[19] = Binding affinity to 5'-GCGCGCCC-3' DNA hairpin assessed as change in fluorescence intensity at 1 uM after 45 mins by fluorescence quenching analysis relative to control
[20] = Binding affinity to 5'-CCCGGCGG-3' DNA hairpin assessed as change in fluorescence intensity at 1 uM after 45 mins by fluorescence quenching analysis relative to control
[21] = Binding affinity to 5'-GCCCCCCC-3' DNA hairpin assessed as change in fluorescence intensity at 1 uM after 45 mins by fluorescence quenching analysis relative to control
[22] = Binding affinity to 5'-GGCGGCCG-3' DNA hairpin assessed as change in fluorescence intensity at 1 uM after 45 mins by fluorescence quenching analysis relative to control
[23] = Binding affinity to 5'-GGGCCCCC-3' DNA hairpin assessed as change in fluorescence intensity at 1 uM after 45 mins by fluorescence quenching analysis relative to control
[24] = Binding affinity to 5'-CCCCGGCG-3' DNA hairpin assessed as change in fluorescence intensity at 1 uM after 45 mins by fluorescence quenching analysis relative to control
[25] = Binding affinity to 5'-GGGGGGGC-3' DNA hairpin assessed as change in fluorescence intensity at 1 uM after 45 mins by fluorescence quenching analysis relative to control
[26] = Binding affinity to 5'-CCCCCGGC-3' DNA hairpin assessed as change in fluorescence intensity at 1 uM after 45 mins by fluorescence quenching analysis relative to control
[27] = Binding affinity to 5'-GGGGGCGC-3' DNA hairpin assessed as change in fluorescence intensity at 1 uM after 45 mins by fluorescence quenching analysis relative to control
[28] = Binding affinity to 5'-CCCCGCGG-3' DNA hairpin assessed as change in fluorescence intensity at 1 uM after 45 mins by fluorescence quenching analysis relative to control
[29] = Binding affinity to 5'-CGCGCCCC-3' DNA hairpin assessed as change in fluorescence intensity at 1 uM after 45 mins by fluorescence quenching analysis relative to control
[30] = Binding affinity to 5'-CCGCGCGG-3' DNA hairpin assessed as change in fluorescence intensity at 1 uM after 45 mins by fluorescence quenching analysis relative to control
[31] = Binding affinity to 5'-CCCGCGGC-3' DNA hairpin assessed as change in fluorescence intensity at 1 uM after 45 mins by fluorescence quenching analysis relative to control
[32] = Binding affinity to 5'-GCGCGCCG-3' DNA hairpin assessed as change in fluorescence intensity at 1 uM after 45 mins by fluorescence quenching analysis relative to control
[33] = Binding affinity to 5'-CGGGCCGG-3' DNA hairpin assessed as change in fluorescence intensity at 1 uM after 45 mins by fluorescence quenching analysis relative to control
[34] = Binding affinity to 5'-GGGCGGCG-3' DNA hairpin assessed as change in fluorescence intensity at 1 uM after 45 mins by fluorescence quenching analysis relative to control
[35] = Binding affinity to 5'-CGGGGCGG-3' DNA hairpin assessed as change in fluorescence intensity at 1 uM after 45 mins by fluorescence quenching analysis relative to control
[36] = Binding affinity to 5'-CGGCCCGG-3' DNA hairpin assessed as change in fluorescence intensity at 1 uM after 45 mins by fluorescence quenching analysis relative to control

NCC1O[C@H](O[C@H]2[C@@H](O)[C@H](O[C@@H]3[C@@H](O)[C@H](N)C[C@H](N)[C@H]3O[C@H]3O[C@H](CN)[C@@H](O)[C@H](O)[C@H]3N)O[C@@H]2CSCCNC(=O)CCSCC(=O)Nc2ccc(-c3c4ccc(=O)cc-4oc4cc(O)ccc34)c(C(=O)O)c2)[C@H](N)[C@@H](O)[C@@H]1O (stereo partly specified)
Activity [1]: 20.2% | Activity [2]: 53.8% | Activity [3]: 26.7% | Activity [4]: 47.3% | Activity [5]: 49.8% | Activity [6]: 44.8% | Activity [7]: 16% | Activity [8]: 45.6% | Activity [9]: 49.3% | Activity [10]: 44.6% | Activity [11]: 38.3% | Activity [12]: 55.1% | Activity [13]: 43.8% | Activity [14]: 43.2% | Activity [15]: 21.3% | Activity [16]: 44.3% | Activity [17]: 48.3% | Activity [18]: 36.7% | Activity [19]: 49.8% | Activity [20]: 39.8% | Activity [21]: 10.1% | Activity [22]: 56.4% | Activity [23]: 15% | Activity [24]: 50% | Activity [25]: 29.8% | Activity [26]: 33.7% | Activity [27]: 35.6% | Activity [28]: 53.3% | Activity [29]: 36.3% | Activity [30]: 47.2% | Activity [31]: 45.4% | Activity [32]: 44.2% | Activity [33]: 48.2% | Activity [34]: 52.7% | Activity [35]: 45.5% | Activity [36]: 54.4%

— ChEMBL document CHEMBL4000244, “Probing A-form DNA: A fluorescent aminosugar probe and dual recognition by anthraquinone-neomycin conjugates” (Bioorg Med Chem, 2017)
